ChEMBL document CHEMBL5120816, “Abietane diterpenes from Abies spectabilis and their anti-pancreatic cancer activity against the MIA PaCa-2 cell line” (Bioorg Med Chem Lett, 2022)
Active and inactive are the calls of the source. The rule behind the calls is not given here.

How the values were obtained:
[1] = Toxicity against human MIA PaCa-2 cells in nutrient-rich medium (DMEM); format: cell-based
[2] = tested on: MIA PaCa-2; assay: Preferential cytotoxicity against human MIA PaCa-2 cells in nutrient-deprived medium; format: functional
[3] = tested on: MIA PaCa-2; assay: Induction of apoptosis in human MIA PaCa-2 cells assessed as down regulation of Bcl-xL expression at 10 to 20 uM incubated for 24 hrs in nutrient-deprived medium by Western blot analysis; format: functional, cell-based; details: dose 10-20 µM
[4] = tested on: MIA PaCa-2; assay: Down regulation of autophagy marker expression in human MIA PaCa-2 cells assessed as reduction in LC3-II expression at 10 to 20 uM in nutrient-deprived medium by Western blot analysis; format: functional, cell-based; details: dose 10-20 µM
[5] = tested on: MIA PaCa-2; assay: Induction of apoptosis in human MIA PaCa-2 cells assessed as down regulation of caspase-3 expression at 10 to 20 uM incubated for 24 hrs in nutrient-deprived medium by Western blot analysis; format: functional, cell-based; details: dose 10-20 µM
[6] = tested on: MIA PaCa-2; assay: Down regulation of autophagy marker expression in human MIA PaCa-2 cells assessed as reduction in LC3-I expression at 10 to 20 uM in nutrient-deprived medium by Western blot analysis; format: functional, cell-based; details: dose 10-20 µM
[7] = tested on: MIA PaCa-2; assay: […] in human MIA PaCa-2 cells assessed as membrane blebbing , cell rupture and leakage of intracellular components into the medium at 20 uM incubated for 24 hrs in nutrient-deprived medium by Hoechst 33342 staining based assay"; format: functional
[8] = tested on: MIA PaCa-2; assay: Down regulation of autophagy marker expression in human MIA PaCa-2 cells assessed as reduction in Atg12 expression at 10 to 20 uM in nutrient-deprived medium by Western blot analysis; format: functional, cell-based; details: dose 10-20 µM
[9] = tested on: MIA PaCa-2; assay: Induction of apoptosis in human MIA PaCa-2 cells assessed as down regulation of Bcl2 expression at 10 to 20 uM incubated for 24 hrs in nutrient-deprived medium by Western blot analysis; format: functional, cell-based; details: dose 10-20 µM
[10] = tested on: MIA PaCa-2; assay: Inhibition of cell migration of human MIA PaCa-2 cells assessed as open area level at 20 uM incubated for 24 hrs in nutrient-deprived medium by quantitative real-time cancer cell migration assay (reference value: 100%); format: functional; set-up: scale not given: the % may be the effect or the level left
[11] = Effect on total mTOR protein level in human MIA PaCa-2 cells at 10 to 20 uM incubated for 6 hrs in nutrient-deprived medium by Western blot analysis; format: toxicity, cell-based; details: mia paca-2, 6 h, dose 10-20 µM
[12] = tested on: MIA PaCa-2; assay: Induction of cell death in human MIA PaCa-2 cells assessed as rounding of cells and membrane rupture at 5 uM incubated for 24 hrs in nutrient-deprived medium by ethidium bromide-acridine orange double staining based EVOS FL digital microscopy"; format: functional
[13] = tested on: MIA PaCa-2; assay: Induction of cellular morphology changes in human MIA PaCa-2 cells assessed as rounding of cells and membrane rupture at 6.25 to 10 uM incubated for 24 hrs in nutrient-deprived medium by ethidium bromide-acridine orange double staining based EVOS FL digital microscopy"; format: functional, cell-based; details: dose 6.25-10 µM, DDE = dose-dependent effect
[14] = target: Serine/threonine-protein kinase mTOR (Homo sapiens) (UniProt P42345); assay: Inhibition of mTOR S2481 phosphorylation in human MIA PaCa-2 cells at 10 to 20 uM incubated for 6 hrs in nutrient-deprived medium by Western blot analysis; format: cell-based; details: dose 10-20 µM
[15] = tested on: MIA PaCa-2; assay: Inhibition of cell migration of human MIA PaCa-2 cells assessed as open area level at 20 uM incubated for 48 hrs in nutrient-deprived medium by quantitative real-time cancer cell migration assay (reference value: 8.9%); format: functional; set-up: scale not given: the % may be the effect or the level left
[16] = tested on: MIA PaCa-2; assay: Down regulation of autophagy marker expression in human MIA PaCa-2 cells assessed as reduction in Atg5 expression at 10 to 20 uM in nutrient-deprived medium by Western blot analysis; format: functional, cell-based; details: dose 10-20 µM
[17] = tested on: MIA PaCa-2; assay: Inhibition of AKT S473 phosphorylation in human MIA PaCa-2 cells at 10 to 20 uM incubated for 6 hrs in nutrient-deprived medium by Western blot analysis; format: cell-based; details: dose 10-20 µM
[18] = Effect on total AKt protein level in human MIA PaCa-2 cells at 10 to 20 uM incubated for 6 hrs in nutrient-deprived medium by Western blot analysis; format: toxicity, cell-based; details: mia paca-2, 6 h, dose 10-20 µM
[19] = tested on: MIA PaCa-2; assay: Down regulation of autophagy marker expression in human MIA PaCa-2 cells assessed as reduction in Atg7 expression at 10 to 20 uM in nutrient-deprived medium by Western blot analysis; format: functional, cell-based; details: dose 10-20 µM

| SMILES | Activity [1] | PC50 [2] [µM] | further results |
| --- | --- | --- | --- |
| CC(C)[C@@]1(O)C=C2C(=O)C[C@@H]3[C@](C)(CCC[C@@]3(C)C(=O)O)[C@H]2CC1 | Non-Toxic | 70.7 | – |
| CC(C)C1=CC[C@H]2C(=C1)C(=O)C[C@@H]1[C@]2(C)CCC[C@@]1(C)C(=O)O [ABIESADINE E] | Non-Toxic | 42.3 | – |
| C[C@@]1(CO)CCC[C@]2(C)[C@H]3CCC(=O)C=C3CC[C@@H]12 | Non-Toxic | 35.8 | – |
| C=C/C(C)=C\C[C@@H]1[C@@]2(C)CCCC(C)(C)[C@@H]2CC(=O)[C@@]1(C)O | Non-Toxic | 15.2 | – |
| C[C@]12CCC[C@@](C)(C(=O)O)[C@@H]1CCC1=CC(=O)CC[C@@H]12 | Non-Toxic | 55.5 | – |
| CC(C)[C@]1(O)C=C2C(=O)C[C@@H]3[C@](C)(CCC[C@@]3(C)C(=O)O)[C@H]2CC1 | Non-Toxic | >100 | – |
| COc1cc(C[C@H]2C(=O)OC[C@@H]2Cc2ccc(OC)c(OC)c2)ccc1O [ARCTIGENIN] | Non-Toxic | 0.7 | – |
| CC(C)[C@@]1(O)C=C2C(=O)C[C@H]3[C@](C)(COC(=O)CCC(=O)O)CCC[C@]3(C)[C@H]2CC1 | Non-Toxic | 82.9 | – |
| CC(C)c1ccc2c(c1)CC[C@H]1[C@](C)(C(=O)O)CCC[C@]21C [DEHYDROABIETIC ACID] | Non-Toxic | 16.9 | – |
| CC(C)c1ccc2c(c1)CC[C@H]1[C@](C)(CO)CCC[C@]21C [POMIFERIN A] | Non-Toxic | 6.6 | Activity [3]: Active; Activity [4]: Active; Activity [5]: Active; Activity [6]: Active; Activity [7]: Active; Activity [8]: Active; Activity [9]: Active; Activity [10]: 64%; Activity [11]: Non-Toxic; Activity [12]: 100%; Activity [13]: Dde; inhibition [14]: Active; Activity [15]: 30.8%; Activity [16]: Active; inhibition [17]: Active; Activity [18]: Non-Toxic; Activity [19]: Active |
